Results on 21 compounds are retold here after patent publication US11999746B2, “Compounds” (GlaxoSmithKline Intellectual Property Development Limited, priority 2014, dated 2024).

SMILES strings stand for the structures. Where a name gives a salt, the structure may show the parent alone.

Assay [1] addresses T1, recombinant human Lp-PLA2 (Homo sapiens, UniProt Q13093).
T1 sequence (Q13093 22-441): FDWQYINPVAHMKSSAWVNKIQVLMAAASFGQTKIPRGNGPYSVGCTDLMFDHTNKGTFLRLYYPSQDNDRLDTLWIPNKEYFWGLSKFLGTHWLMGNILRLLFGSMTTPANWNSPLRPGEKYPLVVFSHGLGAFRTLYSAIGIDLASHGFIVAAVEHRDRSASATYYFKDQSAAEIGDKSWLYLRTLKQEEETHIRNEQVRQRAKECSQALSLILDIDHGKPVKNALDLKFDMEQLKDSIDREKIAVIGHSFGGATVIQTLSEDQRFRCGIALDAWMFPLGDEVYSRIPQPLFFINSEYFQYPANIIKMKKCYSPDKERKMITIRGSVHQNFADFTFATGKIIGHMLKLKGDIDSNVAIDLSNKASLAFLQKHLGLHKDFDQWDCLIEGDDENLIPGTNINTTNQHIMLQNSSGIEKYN
The experiment in a line: (1a) PED6 assay, recombinant human Lp-PLA2 (rhLp-PLA2). The conditions noted are these: Examples 1-167 and 413-430 were tested here, one experiment or average of multiple experiments, read-out: rhLp-PLA2 (pIC50) (converted). The assay is classed as biochemical. An excerpt:
(1) Recombinant Human Lp-PLA2 Assays (rhLp-PLA2)
N-((6-(2,4-Dinitrophenyl)amino)-hexanoyl)-2-(4,4-difluoro-5,7-dimethyl-4-bora-3a,4a-diaza-s-indacene-3-pentanoyl)-1-hexadecanoyl-sn-glycero-3-phosphoethanolamine, triethylammonium salt (PED6) is a commercially available fluorescently-labeled phospholipid, which is commercially available from Invitrogene and Molecular Probes. There is a quenching […] and a Bodipy fluorescein (FL) group in the sn2 position. Upon cleavage with Lp-PLA2, the Bodipy FL group is liberated and then may result in an increase in fluorescence. Inhibitors of Lp-PLA2 therefore prevent this cleavage and no fluorescent increase is observed.
The PED6 assay was run as an unquenched 10 μL assay. The source plate containing the compounds to be tested was prepared by making 1:3 (by volume) serial dilution of the compounds within DMSO on 384-well microplate. Then, 0.01 μL of the compounds on compound source plate were transferred into 384 well Greiner 784076 (black) plates using ECHO liquid dispenser. 5 μL of recombinant human Lp-PLA2 enzyme (4 nM) rhLp-PLA2 in assay buffer of 50 mM HEPES, pH 7.4, 150 mM NaCl, 1 mM CHAPS) was added to each well of the plate. Plates were centrifuged for 10 sec at 500 rpm. After 30 minutes preincubation, 5 μL of substrate (4 μM PED6 [from 5 mM DMSO stock] in assay buffer of 50 mM HEPES, pH 7.4, 150 mM NaCl, 1 mM CHAPS) was added to 384 well Greiner 784076 (black) plates. Plates were centrifuged for 10 sec at 500 rpm. The plate was covered to protect it from light and incubated for 20 min at room temperature. The plates were read for fluorescence intensity at ex: 480/em: 540 using ViewLux microplate imager for Envision spectrofluroimeters. pIC50 data, curve and QC analysis was conducted by using XL fit module in Excel.

Another assay concerns the target T2, Lp-PLA2 in human plasma (Homo sapiens, UniProt Q13093).
T2 construct: from tissue; host or cells: pooled human plasma
T2 sequence (Q13093 22-441): T1 sequence (Q13093 22-441)
The experiment in a line: (3a) Lp-PLA2 human plasma Thio-PAF assay. The class given is biochemical. The conditions noted are these: (3a) Thio-PAF assay, pooled human plasma; Examples 1-265 and 413-430 were tested here; read-out: pIC50 in the Lp-PLA2 human plasma assay (converted). An outline of the steps: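 Endogenous Lp-PLA2 activity in frozen pooled human plasma measured as thiol release from 2-thio-PAF, detected by CPM fluorescence (ex 380/em 485). Compound preincubation 30 min; 2-min reaction in HEPES pH 7.4 buffer with NEM, stopped with 5% TFA, read 40 min later at room temperature; values as pIC50.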

For `O=c1nc(OCc2cc(F)c(F)c(F)c2)cc2n1C[C@@H]1CCOCN21` [Example E139, (S)-3-((3,4,5-trifluorobenzyl)oxy)-8,9,9a,10-tetrahydropyrimido[6′,1′:2,3]imidazo[1,5-c][1,3] oxazin-1(6H)-one], the IC50 (in assay [1]; at Lp-PLA2 in human plasma) was no more than 100 nM throughout.

As for `O=c1nc(OCc2cc(F)c(Oc3ccnc(C(F)(F)F)c3)c(F)c2)cc2n1C[C@H]1CCOCN21` [Example E135, (R)-3-((3,5-difluoro-4-((2-(trifluoromethyl)pyridin-4-yl)oxy)benzyl)oxy)-8,9,9a,10-tetrahydropyrimido[6′,1′:2,3]imidazo[1,5-c][1,3]oxazin-1(6H)-one], the IC50 in assay [1] is no more than 1 nM; on Lp-PLA2 in human plasma it was no more than 100 nM.

Consider `O=c1nc(OCc2ccc(F)cc2)cc2n1CC1CCCCN21` (stereo not drawn) [Example E1, 3-((4-Fluorobenzyl)oxy)-6,7,8,9,9a,10-hexahydro-1H-pyrido[1,2′:3,4]imidazo[1,2-c] pyrimidin-1-one trifluoroacetate salt], for which the IC50 was no more than 100 nM in assay [1] and no more than 10000 nM at Lp-PLA2 in human plasma.

For `Cc1cc(Oc2c(F)cc(COc3cc4n(c(=O)n3)C[C@@H]3COCCN43)cc2F)ccn1` [Example E117, (R)-7-((3,5-difluoro-4-((2-methylpyridin-4-yl)oxy)benzyl)oxy)-3,4,11,11atetrahydropyrimido[6′,1′:2,3]imidazo[5,1-c][1,4]oxazin-9(1H)-one], the IC50 (in assay [1]; on Lp-PLA2 in human plasma) was no more than 100 nM throughout.

`O=c1nc(OCc2cc(F)c(Oc3ccnc(C(F)(F)F)c3)c(F)c2)cc2n1C[C@H]1COCCN21` [Example E113, (S)-7-((3,5-difluoro-4-((2-(trifluoromethyl)pyridin-4-yl)oxy)benzyl)oxy)-3,4, 11, 11a tetrahydropyrimido[6′,1′:2,3]imidazo[5,1-c][1,4]oxazin-9(1H)-one]: the IC50 in assay [1] is 0.0316 nM; on Lp-PLA2 in human plasma, no more than 100 nM.

Take `O=c1nc(OCc2cc(F)c(OC3CN(CCC(F)(F)F)C3)c(F)c2)cc2n1C[C@@H]1CCCN21` [Example E97, (S)-3-((3,5-difluoro-4-((1-(3,3,3-trifluoropropyl)azetidin-3-yl)oxy)benzyl)oxy)-7,8,8a,9-tetra hydropyrrolo[1′,2′:3,4]imidazo[1,2-c]pyrimidin-1(6H)-one]: the figures for the IC50 (in assay [1]; on Lp-PLA2 in human plasma) were no more than 100 nM and no more than 10000 nM, respectively.

As for `O=c1nc(OCCc2cccs2)cc2n1C[C@@H]1CCCCN21` [Example E36, (S)-3-(2-(Thiophen-2-yl)ethoxy)-6,7,8,9,9a,10-hexahydro-1H-pyrido[1′,2′:3,4]imidazo[1,2-c]pyrimidin-1-one], the IC50 was no more than 100 nM in assay [1] and no more than 10000 nM on Lp-PLA2 in human plasma.

Take `O=c1nc(OCc2cc(F)cc(F)c2)cc2n1C[C@H]1CCCN21` [Example E103, (R)-3-((3,5-difluorobenzyl)oxy)-7,8,8a,9-tetrahydropyrrolo[1,2′:3,4]imidazo[1,2-c] pyrimidin-1(6H)-one]: the figures for the IC50 (in assay [1]; on Lp-PLA2 in human plasma) were no more than 100 nM and no more than 10000 nM, respectively.

With `N#Cc1cc(COc2cc3n(c(=O)n2)CC2CCCN32)ccc1Oc1cccc(F)c1` (stereo not drawn) [Example E85, 2-(3-fluorophenoxy)-5-(((1-oxo-1,6,7,8,8a,9-hexahydropyrrolo[1,2′:3,4]imidazo[1,2-c]pyrimidin-3-yl)oxy)methyl)benzonitrile], the IC50 was no more than 1 nM in assay [1] and no more than 100 nM at Lp-PLA2 in human plasma.

For the compound `CN1CCN2c3cc(OCc4cc(F)c(Oc5ccnc(C(F)(F)F)c5)c(F)c4)nc(=O)n3CC2C1` (stereo not drawn) [Example E166, 7-((3,5-Difluoro-4-((2-(trifluoromethyl)pyridin-4-yl)oxy)benzyl)oxy)-2-methyl-3,4,11,11a-tetrahydro-1H-pyrazino[1′,2′:3,4]imidazo[1,2-c]pyrimidin-9(2H)-one], the IC50 in assay [1] is no more than 1 nM; on Lp-PLA2 in human plasma it was no more than 100 nM.

Regarding `O=c1nc(OCc2cc(F)c(Oc3ccnc(C(F)(F)F)c3)c(F)c2)cc2n1CC1CCCN21` (stereo not drawn) [Example E75, 3-((3,5-difluoro-4-((2-(trifluoromethyl)pyridin-4-yl)oxy)benzyl)oxy)-7,8,8a, 9-tetrahydro pyrrolo[1′, 2′:3, 4]imidazo[1,2-c]pyrimidin-1(6H)-one], the IC50 in assay [1] was no more than 1 nM; on Lp-PLA2 in human plasma it was no more than 100 nM.

With `O=c1nc(OCc2cccc(F)c2F)cc2n1C[C@H]1COCCN21` [Example E127, (S)-7-((2,3-difluorobenzyl)oxy)-3,4,11,11a-tetrahydropyrimido[6′,1′:2,3]imidazo[5,1-c][1,4] oxazin-9(1H)-one], the IC50 (in assay [1]; on Lp-PLA2 in human plasma) was no more than 100 nM each time.

As for `Cn1cc(Oc2c(F)cc(COc3cc4n(c(=O)n3)C[C@@H]3COCCN43)cc2F)cn1` [Example E120, (R)-7-((3,5-difluoro-4-((1-methyl-1H-pyrazol-4-yl)oxy)benzyl)oxy)-3,4,11,11a-tetrahydropyrimido[6′,1′:2,3]imidazo[5,1-c][1,4]oxazin-9(1H)-one], the figures for the IC50 (in assay [1]; on Lp-PLA2 in human plasma) were no more than 100 nM and no more than 10000 nM, respectively.

For the compound `O=c1nc(OCc2cc(F)c(F)c(F)c2)cc2n1C[C@H]1COCCN21` [Example E116, (S)-7-((3,4,5-trifluorobenzyl)oxy)-3,4,11,11atetrahydropyrimido[6′,1′:2,3]imidazo[5,1-c][1,4] oxazin-9(1H)-one], the IC50 (in assay [1]; on Lp-PLA2 in human plasma) was no more than 100 nM each time.

Consider `O=c1nc(OCc2ccc(F)cc2F)cc2n1CC1CCCCN21` (stereo not drawn) [Example E8, 3-((2,4-Difluorobenzyl)oxy)-6,7,8,9,9a,10-hexahydro-1H-pyrido[1′,2′:3,4]imidazo[1,2-c] pyrimidin-1-one], for which the IC50 was no more than 100 nM in assay [1] and no more than 10000 nM on Lp-PLA2 in human plasma.

As to `O=c1nc(OCc2cc(F)c(OC3CN(CCC(F)(F)F)C3)c(F)c2)cc2n1CC1CCCN21` (stereo not drawn) [Example E96, 3-((3,5-Difluoro-4-((1-(3,3,3-trifluoropropyl)azetidin-3-yl)oxy)benzyl)oxy)-7,8,8a,9-tetrahy dropyrrolo[1′,2′:3,4]imidazo[1,2-c]pyrimidin-1(6H)-one], the figures for the IC50 (in assay [1]; at Lp-PLA2 in human plasma) were no more than 100 nM and no more than 10000 nM, respectively.

Turning to `CN1c2cc(OCc3cccc(F)c3F)nc(=O)n2CC12CCCCC2` [Example 425, 7′4(2,3-difluorobenzyhoxy)-1-methyl-1H-spiro[cyclohexane-1,2′-imidazo[1,2-c]pyrimidin]-5′(3′H)-one], the IC50 was no more than 100 nM in assay [1] and no more than 10000 nM at Lp-PLA2 in human plasma.

For `N#Cc1ccc(Oc2ccc(COc3cc4n(c(=O)n3)CC3CCCCN43)cc2C#N)cc1Cl` (stereo not drawn) [Example E20, 2-Chloro-4-(2-cyano-4-(((1-oxo-6,7,8,9,9a,10-hexahydro-1H-pyrido[1′,2′:3,4]imidazo[1,2-c]pyrimidin-3-yl)oxy)methyl)phenoxy)benzonitrile], the IC50 in assay [1] was no more than 1 nM; on Lp-PLA2 in human plasma, no more than 100 nM.

Take `CN1c2cc(OCc3cc(F)c(F)cc3F)nc(=O)n2CC12CCCC2` [Example 415, 1-methyl-7′-((2,4,5-trifluorobenzyl)oxy)-1′H-spiro[cyclopentane-1,2′-imidazo[1,2-c]pyrimidin]-5′(3′H)-one]: the results for the IC50 (in assay [1]; on Lp-PLA2 in human plasma) were no more than 100 nM and no more than 10000 nM, respectively.

Turning to `O=c1nc(OCc2cc(F)cc(F)c2)cc2n1C[C@@H]1COCCN21` [Example E133, (R)-7-((3,5-difluorobenzyl)oxy)-3,4,11,11a-tetrahydropyrimido[6′,1′:2,3]imidazo[5,1-c][1,4] oxazin-9(1H)-one], the IC50 is no more than 100 nM in assay [1] and no more than 10000 nM on Lp-PLA2 in human plasma.

For the compound `Cc1cc(Oc2c(F)cc(COc3cc4n(c(=O)n3)C[C@@H]3COCN43)cc2F)ccn1` [Example E155, (R)-6-((3,5-difluoro-4-((2-methylpyridin-4-yl)oxy)benzyl)oxy)-10,10a-dihydro-1H-oxazolo[3′,4′:3,4]imidazo[1,2-c]pyrimidin-8(3H)-one], the values for the IC50 (in assay [1]; on Lp-PLA2 in human plasma) were no more than 100 nM and no more than 10000 nM, respectively.
